Results from patent US20250129028A1, “COMPOUNDS AND METHODS FOR YAP/TEAD MODULATION AND INDICATIONS THEREFOR” (Opna Bio SA, priority 2022, published 2025).

The molecules below were run on TEAD-dependent transcription (assay: TEAD-dependent transcription cell-based reporter assay (MSTO-211H+12XGTIIC luciferase)). Details: Homo sapiens; MSTO-211H+12XGTIIC cell line, luciferase signal normalized to cell viability, 24 hours compound incubation; read-out: MSTO-211H GMean IC50 (uM) Cell Assay Reporter Cell Variant: TEAD.
Set-up: species or system human
In short: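 MSTO-211H mesothelioma cells stably carrying a 12xGTIIC TEAD-response-element luciferase reporter, treated with serial compound dilutions for 24 h at 37 °C. Luminescence normalized to CellTiter-Fluor viability signal; % inhibition versus DMSO and 20 μM K-975 controls, IC50 by nonlinear regression.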

SMILES | IC50 [µM]
O=C(Cc1n[nH]c(=O)[nH]1)N1CCc2ccc(Oc3ccc(C(F)(F)F)c(F)c3)cc2C1 [P-0160, 5-(2-(7-(3-fluoro-4-(trifluoromethyl)phen-oxy)-3,4-dihydroisoquin-olin-2(1H)-yl)-2-oxoeth-yl)-2,4-dihydro-3H-1,2,4-triazol-3-one] | 0.001 to 10
COC(=O)[C@@H]1Cc2ccc(Oc3ccc(C(F)(F)F)cc3)cc2CN1C(=O)CCS(C)(=O)=O [P-0224, methyl (S)-2-(3-(methyl-sulfonyl)propanoyl)-7-(4-(trifluoromethyl)-phenoxy)-1,2,3,4-tetra-hydroisoquinoline-3-carboxylate] | 0.001 to 10
CC(C)NC(=O)N1CCc2ccc(Oc3ccc(C(F)(F)F)cc3)cc2C1 [P-0019, N-isopropyl-7-(4-(trifluoromethyl)phen-oxy)-3,4-dihydroiso-quinoline-2(1H)-carbox-amide] | 0.001 to 10
O=C(Nc1ccccc1)N1CCc2c(cccc2Oc2ccc(C(F)(F)F)cc2)C1 [P-0237, N-phenyl-5-(4-(trifluoro-methyl)phenoxy)-3,4-dihydroisoquinoline-2(1H)-carboxamide] | 0.001 to 10
C=C(C)OC(=O)N1CCc2ccc(Oc3ccc(C(F)(F)F)cc3)cc2C1 [P-0036, prop-1-en-2-yl 7-(4-(trifluoromethyl)phen-oxy)-3,4-dihydroiso-quinoline-2(1H)-carbox-ylate] | 0.001 to 10
NC(=O)NCC(=O)N1CCc2ccc(Oc3ccc(Cl)cc3)cc2C1 [P-0104, 1-(2-(7-(4-chlorophen-oxy)-3,4-dihydroisoquin-olin-2(1H)-yl)-2-oxoeth-yl)urea] | 0.001 to 10
CN(C)C(=O)CN1CCc2ccc(Oc3ccc(C(F)(F)F)cc3)cc2C1 [P-0027, N,N-dimethyl-2-(7-(4-(trifluoromethyl)phen-oxy)-3,4-dihydroisoquin-olin-2(1H)-yl)acetamide] | 0.001 to 10
O=C(CNC(=O)C(F)(F)F)N1CCc2ccc(Oc3ccc(C(F)(F)F)cc3)cc2C1 [P-0100, 2,2,2-trifluoro-N-(2-oxo-2-(7-(4-(trifluoromethyl)-phenoxy)-3,4-dihydroiso-quinolin-2(1H)-yl)ethyl)-acetamide] | 0.001 to 10
CS(=O)(=O)CCC(=O)N1CCc2ccc(Oc3ccc(C(F)(F)F)cc3)cc2C1C1CCN(C(=O)C2CC2)CC1 (stereo not shown) [P-0210, 1-(1-(1-(cyclopropanecarbonyl)piperidin-4-yl)-7-(4-(trifluoromethyl)phenoxy)-3,4-dihydroisoquinolin-2(1H)-yl)-3-(methylsulfonyl)propan-1-one] | 0.001 to 10
O=C1CC(C(=O)N2CCc3ccc(Oc4ccc(C(F)(F)F)cc4)cc3C2)CCN1 (stereo not shown) [P-0130, 4-(7-(4-(trifluoromethyl)-phenoxy)-1,2,3,4-tetra-hydroisoquinoline-2-carbonyl)piperidin-2-one] | 0.001 to 10
O=C(Cc1cn[nH]c1)N1CCc2c(cccc2Oc2ccc(C(F)(F)F)cc2)C1 [P-0247, 2-(1H-pyrazol-4-yl)-1-(5-(4-(trifluoromethyl)-phenoxy)-3,4-dihydroiso-quinolin-2(1H)-yl)ethan-1-one] | 0.001 to 10
O=C(Cc1cnc[nH]1)N1CCc2ccc(Oc3ccc(C(F)(F)F)c(F)c3)cc2C1 [P-0150, 1-(7-(3-fluoro-4-(trifluoromethyl)phen-oxy)-3,4-dihydroisoquin-olin-2(1H)-yl)-2-(1H-imidazol-5-yl)ethan-1-one] | 0.001 to 10
CS(=O)(=O)c1ncc(C(=O)N2CCc3ccc(Oc4ccc(C(F)(F)F)cc4)cc3C2)s1 [P-0075, (2-(methylsulfonyl)thi-azol-5-yl)(7-(4-(trifluoro-methyl)phenoxy)-3,4-dihydroisoquinolin-2(1H)-yl)methanone] | 0.001 to 10
O=C(CNS(=O)(=O)C1CC1)N1CCc2ccc(Oc3ccc(C(F)(F)F)c(F)c3)cc2C1 [P-0117, N-(2-(7-(3-fluoro-4-(trifluoromethyl)phen-oxy)-3,4-dihydroisoquin-olin-2(1H)-yl)-2-oxoeth-yl)cyclopropanesulfon-amide] | 0.001 to 10
CS(=O)(=O)CCC(=O)N1CCc2ccc(Oc3ccc(C(F)(F)F)cc3)c(-c3ccc(C4CC4)nc3)c2C1 [P-0207, 1-(8-(6-cyclopropylpyr-idin-3-yl)-7-(4-(trifluoro-methyl)phenoxy)-3,4-dihydroisoquinolin-2(1H)-yl)-3-(methylsul-fonyl)propan-1-one] | 0.001 to 10
COC(=O)CCS(=O)(=O)N1CCc2ccc(Oc3ccc(C(F)(F)F)cc3)cc2C1 [P-0050, methyl 3-((7-(4-(trifluoro-methyl)phenoxy)-3,4-dihydroisoquinolin-2(1H)-yl)sulfonyl)pro-panoate] | 0.001 to 10
C=CC(=O)Nc1nc(CC(=O)N2CCc3ccc(Oc4ccc(C(F)(F)F)c(F)c4)cc3C2)cs1 [P-0154, N-(4-(2-(7-(3-fluoro-4-(trifluoromethyl)phen-oxy)-3,4-dihydroisoquin-olin-2(1H)-yl)-2-oxoeth-yl)thiazol-2-yl)acrylamide] | 0.001 to 10
O=C1NC(=O)C(CC(=O)N2CCc3ccc(Oc4ccc(C(F)(F)F)cc4)cc3C2)N1 (stereo not shown) [P-0083, 5-(2-oxo-2-(7-(4-(trifluoromethyl)phen-oxy)-3,4-dihydroisoquin-olin-2(1H)-yl)ethyl)imid-azolidine-2,4-dione] | 0.001 to 10
O=C(Cc1ccn[nH]1)N1CCc2c(cccc2Oc2ccc(C(F)(F)F)cc2)C1 [P-0241, 2-(1H-pyrazol-5-yl)-1-(5-(4-(trifluoromethyl)-phenoxy)-3,4-dihydroiso-quinolin-2(1H)-yl)ethan-1-one] | 0.001 to 10
CN(C)S(=O)(=O)NCC(=O)N1CCc2ccc(Oc3ccc(C(F)(F)F)c(F)c3)cc2C1 [P-0116, N,N-dimethyl-N′-(2-(7-(3-fluoro-4-(trifluoro-methyl)phenoxy)-3,4-dihydroisoquinolin-2(1H)-yl)-2-oxoethyl)-sulfamide] | 0.001 to 10
O=C(CCS(=O)(=O)C(F)(F)F)N1CCc2ccc(Oc3ccc(C(F)(F)F)c(F)c3)cc2C1 [P-0141, 1-(7-(3-fluoro-4-(trifluoromethyl)phen-oxy)-3,4-dihydroiso-quinolin-2(1H)-yl)-3-((trifluoromethyl)sulfon-yl)propan-1-one] | 0.001 to 10
CS(=O)(=O)c1ccc(C(=O)N2CCc3ccc(Oc4ccc(C(F)(F)F)cc4)cc3C2)cn1 [P-0082, (6-(methylsulfonyl)pyr-idin-3-yl)(7-(4-(trifluoro-methyl)phenoxy)-3,4-dihydroisoquinolin-2(1H)-yl)methanone] | 0.001 to 10
CS(=O)(=O)CCC(=O)N1CCc2ccc(Oc3ccc(C(F)(F)F)cc3)c(-c3cnn(CC4CC4)c3)c2C1 [P-0206, 1-(8-(1-(cyclopropyl-methyl)-1H-pyrazol-4-yl)-7-(4-(trifluorometh-yl)phenoxy)-3,4-dihydro-isoquinolin-2(1H)-yl)-3-(methylsulfonyl)-propan-1-one] | 0.001 to 10
O=C1CC(CC(=O)N2CCc3ccc(Oc4ccc(C(F)(F)F)cc4)cc3C2)C(=O)N1 (stereo not shown) [P-0043, 3-(2-oxo-2-(7-(4-(trifluoromethyl)phen-oxy)-3,4-dihydroiso-quinolin-2(1H)-yl)ethyl)-pyrrolidine-2,5-dione] | 0.001 to 10
O=C(C1CCCNC1)N1CCc2ccc(Oc3ccc(C(F)(F)F)c(F)c3)cc2C1 (stereo not shown) [P-0146, (7-(3-fluoro-4-(trifluoro-methyl)phenoxy)-3,4-dihydroisoquinolin-2(1H)-yl)(piperidin-3-yl)methanone] | 0.001 to 10
